# From patent US20120178782A1, “COMPOSITIONS AND METHODS FOR TREATING PROLIFERATIVE DISEASES” (priority 2009, published 2012)
# What was measured:
# MDA-MB-231 = experiment: MTT cell proliferation assay, breast cancer cell line MDA-MB-231; assay type: cell-based, human; settings: single inhibitor, 72 hours culture; for minimum proliferation inhibitory concentration: FIG. 1C, 1F; for minimum inhibitory concentration (cell proliferation): FIG. 1
# Description: In the experiments described below, the cells used are human breast and colon cancer cell lines. The breast cancer cell lines were obtained from Lombarda Cancer Center, Georgetown University Medical Center. The breast cancer lines are cell lines called […] and Hs578T. These cells show a high rate of proliferation, absence of estrogen receptors, are capable of forming tumors in naked mice and show a highly aggressive phenotype. Both lines are used very frequently as breast cancer models. The colon cancer cell line is the cell line called SW620 that was originally isolated from the lymphatic nodules of a patient with colon adenocarcinoma.
# The cells are cultivated in polystyrene culture bottles (Corning, Corning, N.Y.). Both cell lines are kept in culture in DMEM medium (Dulbeco's Modified Tagle Medium, obtained from Gibco, Invitrogen Corporation, NY. USA) and supplemented with 10% fetal bovine serum (FBS) (obtained from PAA, GmbH Laboratories, Pasching, Austria), and supplemented with 100 U/ml of penicillin and 10 μg/ml of streptomycin (Gibco, Invitrogen Corporation, NY, USA) in incubator 37° C. In humidified atmosphere of […]/5% CO2.
# There were carried out curves of dose-cell proliferation inhibition response of the human breast cancer cell line MDA-MB-231, with the intent of objectively knowing the minimum concentrations that produce a proliferation inhibiting effect.
# In all the cases, the cell proliferation measurement was carried out using the MTT techniques of incorporation of Bromodeoxyuridine (BrdUr) (5-bromine-2′-deoxyuridine of Elisa Roche Applied Science, Mannheim, Germany) and the violet crystal coloration technique.
# The cells were cultivated in microplates (Orange Scientific) of 96 cavities in the amount of 4,000 cells per cavity in 200 ul of DMEM supplemented with FCS supplemented with 100 U/ml of penicillin and 10 ug/ml of streptomycin in incubator at 37° C. with atmosphere of […]/5% CO2. A the end of this period, the cells were cultivated for another 24 hours in culture medium in the absence of serum. At the end of this period, culture medium with scram in the absence (control) or presence of different inhibitors was added, in accordance with the following:
# The cells were kept in culture for 72 hours. Then, thiazol blue bromide reagent was added (3-(4,5-dimethylthiazol-[…])-2,5-diphenyltetrazolium bromide). It was incubated for 180 minutes at 37° C. After this time, the culture medium was discarded and the formazan crystals formed were dissolved with 200 ul of dimethylsulfoxide. The microplates were agitated for 15 minutes to dilute the crystals of homogeneous form, and absorbance was determined at 620 nm in a plate reader, “Biotra II, plate reader,” of Amersham Biosciences Inc., Piscataway, N.J., USA.
# COX-2 enzyme = target: T1, COX-2 enzyme (Homo sapiens, UniProt P35354); settings: plasma concentrations; cited from earlier work
# T1 sequence (P35354 18-604): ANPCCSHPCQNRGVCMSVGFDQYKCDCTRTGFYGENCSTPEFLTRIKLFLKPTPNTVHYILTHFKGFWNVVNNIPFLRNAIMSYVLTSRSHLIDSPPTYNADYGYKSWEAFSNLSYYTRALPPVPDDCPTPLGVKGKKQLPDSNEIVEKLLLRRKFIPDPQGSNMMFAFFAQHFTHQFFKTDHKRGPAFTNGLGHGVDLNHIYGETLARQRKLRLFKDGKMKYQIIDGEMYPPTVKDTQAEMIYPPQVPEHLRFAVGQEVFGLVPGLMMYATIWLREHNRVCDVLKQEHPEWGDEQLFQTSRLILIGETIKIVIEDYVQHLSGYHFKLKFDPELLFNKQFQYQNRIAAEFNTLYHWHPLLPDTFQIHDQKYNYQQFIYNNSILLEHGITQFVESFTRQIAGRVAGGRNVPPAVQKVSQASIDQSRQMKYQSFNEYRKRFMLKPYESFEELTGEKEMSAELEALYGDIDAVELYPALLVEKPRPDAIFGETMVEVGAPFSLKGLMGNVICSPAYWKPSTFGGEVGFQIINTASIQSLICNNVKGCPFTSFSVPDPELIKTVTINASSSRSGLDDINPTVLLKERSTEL
# cell growth = settings: Min Yao et al. 2005; cited from earlier work
# [1] = tested on: cells of the microvascular endothelium; settings: per se inhibitory doses of 75 μM; Kakiuchi-Kiyota et al. 2009; cited from earlier work
SMILES,minimum inhibitory concentration (cell proliferation) (MDA-MB-231) [µM],further results
COc1cc(C(=O)NS(=O)(=O)c2ccccc2C)ccc1Cc1cn(C)c2ccc(NC(=O)OC3CCCC3)cc12 [Zafirlukast],,minimum proliferation inhibitory concentration (MDA-MB-231): > 100 nM
CN(CCOc1ccc(CC2SC(=O)NC2=O)cc1)c1ccccn1 (stereo not shown) [Rosiglitazone],75,
Cc1ccc(-c2ncc(Cl)cc2-c2ccc(S(C)(=O)=O)cc2)cn1 [Etoricoxib],,minimum proliferation inhibitory concentration (MDA-MB-231): 1000 nM
"CC(=O)Oc1ccccc1C(=O)O [aspirin, acetylsalicylic acid]",,plasma concentration inhibiting COX-2 enzyme (COX-2 enzyme): greater than 0.5 mM
"CC1=C(C)C(=O)C(CCCCC#CCCCC#CCO)=C(C)C1=O [AA861, Docebenone]",10,
CC(c1cc2ccccc2s1)N(O)C(N)=O (stereo not shown) [Zileuton],500,
CC(C)Cc1ccc(C(C)C(=O)O)cc1 (stereo not shown) [Ibuprofen],500,dose for cell growth inhibition (cell growth): at least 500 μM
Cc1c(C)c2c(c(C)c1O)CCC(C)(COc1ccc(CC3SC(=O)NC3=O)cc1)O2 (stereo not shown) [Troglitazone],75,toxic effects on endothelial cells [1]: toxic effects were described
